Patent US20090048301A1 (IMCLONE SYSTEMS INCORPORATED, priority 2003, published 2009)

The compounds below were run on bovine tubulin (assay: In vitro tubulin polymerization assay (turbidity at 340 nm)). Conditions: 10 μM compound, 30 minute data point, vs 1% DMSO control.
Assay type: biochemical
Method in brief: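 Percent inhibition derives from turbidity (340 nm) at 30 min relative to 1% DMSO controls, read every minute at 37° C. Polymerization mix: 3 mg/ml bovine tubulin, <3% MAPs, in PIPES pH 7 G-PEM with 1 mM GTP, 1 mM MgCl2, 5% glycerol; enhancers also detectable.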

Structure (SMILES) | Tubulin Assay: percent inhibition at 10 μM based on 30 minute data
Brc1ccc(-c2nnc(-c3ccccc3NCc3ccc4cn[nH]c4c3)[nH]2)cc1 [Compound 146, {2-[5-(4-Bromo-phenyl)-4H-[1,2,4]triazol-3-yl]-phenyl}-(1H-indazol-6-ylmethyl)-amine] | 39%
Brc1ccc(-c2nnc(-c3ccccc3NCc3ccc4[nH]cnc4c3)[nH]2)cc1 [Compound 147, (1H-Benzoimidazol-5-ylmethyl)-{2-[5-(4-bromo-phenyl)-4H-[1,2,4]triazol-3-yl]-phenyl}-amine] | 43%
COc1cccc(-c2nnc(-c3ccccc3NCc3ccc4cn[nH]c4c3)[nH]2)c1 [Compound 149, (1H-Indazol-6-ylmethyl)-{2-[5-(3-methoxy-phenyl)-4H-[1,2,4]triazol-3-yl]-phenyl}-amine] | 26%
FC(F)(F)c1cccc(-c2nnc(-c3ccccc3NCc3ccc4c(c3)OCCO4)[nH]2)c1 [Compound 150, (2,3-Dihydro-benzo[1,4]dioxin-6-ylmethyl)-{2-[5-(3-trifluoromethyl-phenyl)-4H-[1,2,4]triazol-3-yl]-phenyl}-amine] | 24%
COc1cc(CNc2ccccc2-c2nnc(-c3cccc(Br)c3)[nH]2)cc(OC)c1 [Compound 151, {2-[5-(3-Bromo-phenyl)-4H-[1,2,4]triazol-3-yl]-phenyl}-(3,5-dimethoxy-benzyl)-amine] | 42%
FC(F)(F)c1cccc(-c2nnc(-c3ccccc3NCc3ccc4c(c3)OCO4)[nH]2)c1 [Compound 152, Benzo[1,3]dioxol-5-ylmethyl-{2-[5-(3-trifluoromethyl-phenyl)-4H-[1,2,4]triazol-3-yl]-phenyl}-amine] | 73%
CS(=O)(=O)c1ccc(-c2nnc(-c3ccc(C(F)(F)F)cc3NCc3ccncc3)[nH]2)cc1 [Compound 153, {2-[5-(4-Methanesulfonyl-phenyl)-4H-[1,2,4]triazol-3-yl]-5-trifluoromethyl-phenyl}-pyridin-4-ylmethyl-amine] | 54%
COc1ccc(CNc2ncccc2-c2nnc(Nc3ccc4c(c3)OCO4)o2)cc1OC [Compound 158, {3-[5-(Benzo[1,3]dioxol-5-ylamino)-[1,3,4]oxadiazol-2-yl]-pyridin-2-yl}-(3,4-dimethoxy-benzyl)-amine] | 90%
COc1cc(Nc2nnc(-c3cccnc3NCc3ccc(F)c(F)c3)o2)cc(OC)c1OC [Compound 167, (3,4-Difluoro-benzyl)-{3-[5-(3,4,5-trimethoxy-phenylamino)-[1,3,4]oxadiazol-2-yl]-pyridin-2-yl}-amine] | 99%
Fc1cccc(CNc2ncccc2-c2nnc(Nc3ccc4c(c3)OCO4)o2)c1 [Compound 171, {3-[5-(Benzo[1,3]dioxol-5-ylamino)-[1,3,4]oxadiazol-2-yl]-pyridin-2-yl}-(3-fluoro-benzyl)-amine] | 91%
c1cnc(NCC2CCCO2)c(-c2nnc(Nc3ccc4c(c3)OCO4)o2)c1 (stereo not drawn) [Compound 174, {3-[5-(Benzo[1,3]dioxol-5-ylamino)-[1,3,4]oxadiazol-2-yl]-pyridin-2-yl}-(tetrahydro-furan-2-ylmethyl)-amine] | 64%
COc1cc(CNc2ncccc2-c2nnc(Nc3cccc(F)c3)o2)cc(OC)c1 [Compound 184, (3,5-Dimethoxy-benzyl)-{3-[5-(3-fluoro-phenylamino)-[1,3,4]oxadiazol-2-yl]-pyridin-2-yl}-amine] | 23%
COc1ccc(CNc2ncccc2-c2nnc(Nc3cc(OC)c(OC)c(OC)c3)o2)cc1 [Compound 188, (4-Methoxy-benzyl)-{3-[5-(3,4,5-trimethoxy-phenylamino)-[1,3,4]oxadiazol-2-yl]-pyridin-2-yl}-amine] | 56%
NS(=O)(=O)c1cccc(Nc2ncccc2-c2nnc(Nc3ccc4c(c3)OCCO4)o2)c1 [Compound 191, 3-{3-[5-(2,3-Dihydro-benzo[1,4]dioxin-6-ylamino)-[1,3,4]oxadiazol-2-yl]-pyridin-2-ylamino}-benzenesulfonamide] | 28%
c1cncc(CCNc2ncccc2-c2nnc(Nc3ccc4c(c3)OCO4)o2)c1 [Compound 200, {3-[5-(Benzo[1,3]dioxol-5-ylamino)-[1,3,4]oxadiazol-2-yl]-pyridin-2-yl}-(2-pyridin-3-yl-ethyl)-amine] | 68%
c1cncc(CCNc2ncccc2-c2nnc(Nc3ccc4c(c3)OCCO4)o2)c1 [Compound 201, {3-[5-(2,3-Dihydro-benzo[1,4]dioxin-6-ylamino)-[1,3,4]oxadiazol-2-yl]-pyridin-2-yl}-(2-pyridin-3-yl-ethyl)-amine] | 23%
COc1cc(Nc2nnc(-c3cccnc3NCCc3cccnc3)o2)cc(OC)c1OC [Compound 204, (2-Pyridin-3-yl-ethyl)-{3-[5-(3,4,5-trimethoxy-phenylamino)-[1,3,4]oxadiazol-2-yl]-pyridin-2-yl}-amine] | 28%

Structure (SMILES) | Tubulin Assay: percent inhibition at 10 μM based on 30 minute data
c1cnc(OCc2ccc3c(c2)OCO3)c(-c2nnc(Nc3ccc4c(c3)OCO4)o2)c1 [Compound 208, Benzo[1,3]dioxol-5-yl-{5-[2-(benzo[1,3]dioxol-5-ylmethoxy)-pyridin-3-yl]-[1,3,4]oxadiazol-2-yl}-amine] | 44%
Brc1cnn(-c2ncccc2-c2nnc(Nc3ccc4c(c3)OCCO4)o2)c1 [Compound 211, {5-[2-(4-Bromo-pyrazol-1-yl)-pyridin-3-yl]-[1,3,4]oxadiazol-2-yl}-(2,3-dihydro-benzo[1,4]dioxin-6-yl)-amine] | 73%
CS(=O)(=O)c1ccc(-c2nnc(-c3cccnc3NCc3ccc(F)cc3)o2)cc1 [Compound 212, (4-Fluoro-benzyl)-{3-[5-(4-methanesulfonyl-phenyl)-[1,3,4]oxadiazol-2-yl]-pyridin-2-yl}-amine] | 38%
COc1cc(Nc2ncccc2-c2nnc(-c3ccc(S(C)(=O)=O)cc3)o2)cc(OC)c1 [Compound 213, (3,5-Dimethoxy-phenyl)-{3-[5-(4-methanesulfonyl-phenyl)-[1,3,4]oxadiazol-2-yl]-pyridin-2-yl}-amine] | 30%
CS(=O)(=O)c1ccc(-c2nnc(-c3cccnc3NCc3cccc(F)c3)o2)cc1 [Compound 214, (3-Fluoro-benzyl)-{3-[5-(4-methanesulfonyl-phenyl)-[1,3,4]oxadiazol-2-yl]-pyridin-2-yl}-amine] | 52%
c1ccc(-c2nnc(Nc3ccc4c(c3)OCCO4)o2)c(NCc2ncc[nH]2)c1 [Compound 220, (2,3-Dihydro-benzo[1,4]dioxin-6-yl)-(5-{2-[(1H-imidazol-2-ylmethyl)-amino]-phenyl}-[1,3,4]oxadiazol-2-yl)-amine] | 79%
c1ccc(-c2nnc(Nc3ccc4c(c3)OCCO4)o2)c(NCc2cnccn2)c1 [Compound 221] | 80%
c1ccc(-c2nnc(Nc3ccc4c(c3)OCCO4)o2)c(NCc2ccc3[nH]ncc3c2)c1 [Compound 222, (2,3-Dihydro-benzo[1,4]dioxin-6-yl)-(5-{2-[(1H-indazol-5-ylmethyl)-amino]-phenyl}-[1,3,4]oxadiazol-2-yl)-amine] | 95%
c1ccc(-c2nnc(Nc3ccc4c(c3)OCCO4)o2)c(NCc2cncnc2)c1 [Compound 226, (2,3-Dihydro-benzo[1,4]dioxin-6-yl)-(5-{2-[(pyrimidin-5-ylmethyl)-amino]-phenyl}-[1,3,4]oxadiazol-2-yl)-amine] | 94%
c1ccc(-c2nnc(Nc3ccc4c(c3)OCCO4)o2)c(NCc2ccc3ncccc3c2)c1 [Compound 227, (2,3-Dihydro-benzo[1,4]dioxin-6-yl)-(5-{2-[(quinolin-6-ylmethyl)-amino]-phenyl}-[1,3,4]oxadiazol-2-yl)-amine] | 99%
CN(C)c1ccc(-c2nnc(Nc3ccc4c(c3)OCCO4)o2)c(NCc2cccnc2)c1 [Compound 229, (2,3-Dihydro-benzo[1,4]dioxin-6-yl)-(5-{4-dimethylamino-2-[(pyridin-3-ylmethyl)-amino]-phenyl}-[1,3,4]oxadiazol-2-yl)-amine] | 32%
CN(C)c1ccc(-c2nnc(Nc3ccc4c(c3)OCCO4)o2)c(NCc2ccccn2)c1 [Compound 230, (2,3-Dihydro-benzo[1,4]dioxin-6-yl)-(5-{4-dimethylamino-2-[(pyridin-2-ylmethyl)-amino]-phenyl}-[1,3,4]oxadiazol-2-yl)-amine] | 45%
CN(C)c1ccc(-c2nnc(Nc3ccc4c(c3)OCCO4)o2)c(NCc2ccncc2)c1 [Compound 231] | 28%
CN(C)c1ccc(-c2nnc(Nc3ccc4c(c3)OCCO4)o2)c(NCc2ccc3c(c2)OCO3)c1 [Compound 232, (5-{2-[(Benzo[1,3]dioxol-5-ylmethyl)-amino]-4-dimethylamino-phenyl}-[1,3,4]oxadiazol-2-yl)-(2,3-dihydro-benzo[1,4]dioxin-6-yl)-amine] | 26%
CN(C)c1ccc(-c2nnc(Nc3ccc4c(c3)OCCO4)o2)c(NCc2ccc(F)c(F)c2)c1 [Compound 233, {5-[2-(3,4-Difluoro-benzylamino)-4-dimethylamino-phenyl]-[1,3,4]oxadiazol-2-yl}-(2,3-dihydro-benzo[1,4]dioxin-6-yl)-amine] | 40%
CN(C)c1ccc(-c2nnc(Nc3ccc4c(c3)OCCO4)o2)c(NCc2cncnc2)c1 [Compound 234, (2,3-Dihydro-benzo[1,4]dioxin-6-yl)-(5-{4-dimethylamino-2-[(pyrimidin-5-ylmethyl)-amino]-phenyl}-[1,3,4]oxadiazol-2-yl)-amine] | 30%
